Measurements reported in patent publication US20250129031A1, “1,2,3-TRIAZOLE CARBONYL SULFONYLAMIDE COMPOUNDS AND USE THEREOF” (PI INDUSTRIES LTD., priority 2022, published 2025).

System: Meloidogyne incognita
Assay: Meloidogyne incognita test: gall rating on cucumber plants in pots after soil application
Assay type: in vivo
Set-up: key: 0: no galls; 1: very few small galls; 2: numerous small galls; 3: numerous small galls of which some are grown together; 4: numerous small and some big galls; 25% of roots severely galled; 6: 50% of roots severely galled; 75% of roots severely galled; 8: no healthy roots but plant is still green; 9: roots rotting and plant dying; 10: plant and roots dead
Conditions: 1000 ppm applied to soil inoculated with 5000 eggs & J2s; cucumber seedlings; rated 30 days after application; 0-10 scale (Zeck 1971); untreated check up to 8
Experimental: Meloidogyne incognita Test:
The trial pots were filled with soil containing a mixture of sand:soil:cocopeat in a ratio of 1:1:1. To the soil of each pot 5 mL of a nematode suspension (Meloidogyne incognita, mix of 5000 eggs & J2s) was added. One hour later the respective test compound at the stated concentration was applied to each pot. 10 days old cucumber seedlings were transplanted into the pots one day after the application. The cucumber plants were allowed to grow at a temperature of 27° C. under greenhouse conditions. The evaluation of the gall rating was recorded 30 days after the application. The plants were carefully uprooted and the roots were thoroughly washed. The gall rating was done on a 0-10 scale as described by Zeck (1971) and shown below: • 0=no galls • 1=very few small galls • 2=numerous small galls • 3=numerous small galls of which some are grown together • 4=numerous small and some big galls • 5=25% of roots severely galled • 6=50% of roots severely galled • 7=75% of roots severely galled • 8=no healthy roots but plant is still green • 9=roots rotting and plant dying • 10=plant and roots dead

Structure (SMILES) | gall rating scale
Cc1c(C(=O)NS(=O)(=O)c2cc(Cl)ccc2Cl)nnn1-c1ccc(C#N)cc1Cl [Compound 316, 1-(2-chloro-4-cyanophenyl)-N-((2,5-dichlorophenyl)sulfonyl)-5-methyl-1H-1,2,3-triazole-4-carboxamide] | 4
Cc1c(C(=O)NS(=O)(=O)c2ccccc2Cl)nnn1-c1cc(Cl)cc(Cl)c1 [Compound 7, N-((2-chlorophenyl)sulfonyl)-1-(3,5-dichlorophenyl)-5-methyl-1H-1,2,3-triazole-4-carboxamide] | 4
Cc1ccccc1S(=O)(=O)NC(=O)c1nnn(-c2ccc(C#N)cc2Cl)c1C [Compound 459] | 4
CCc1c(C(=O)NS(=O)(=O)c2ccccc2F)nnn1-c1ccc(F)cc1Cl [Compound 378, 1-(2-chloro-4-fluorophenyl)-5-ethyl-N-((2-fluorophenyl)sulfonyl)-1H-1,2,3-triazole-4-carboxamide] | 4
O=C(NS(=O)(=O)c1ccccc1C(F)(F)F)c1nnn(-c2cc(Cl)ccc2Cl)c1C(F)(F)F [Compound 335, 1-(2,5-dichlorophenyl)-5-(trifluoromethyl)-N-((2-(trifluoromethyl)phenyl)sulfonyl)-1H-1,2,3-triazole-4-carboxamide] | 4
Cc1c(C(=O)NS(=O)(=O)c2ccc(F)cc2F)nnn1-c1ccc(C#N)cc1F [Compound 413] | 4
COc1ccc(Cl)c(S(=O)(=O)NC(=O)c2nnn(-c3ccc(F)cc3Cl)c2C)c1 [Compound 242] | 4
Cc1c(C(=O)NS(=O)(=O)c2ccccc2F)nnn1-c1ccc(OC(F)(F)F)cc1Cl [Compound 143] | 4
Cc1c(C(=O)NS(=O)(=O)c2c(F)cc(F)cc2F)nnn1-c1cc(Cl)cc(C(F)(F)F)c1 [Compound 97] | 4
Cc1c(C(=O)NS(=O)(=O)c2ccccc2F)nnn1-c1cc(Cl)cc(C(F)(F)F)c1 [Compound 96] | 4
O=C(NS(=O)(=O)c1ccccc1C(F)(F)F)c1nnn(-c2ccc(Cl)cc2Cl)c1C(F)(F)F [Compound 209] | 4
Cc1ccc(C)c(S(=O)(=O)NC(=O)c2nnn(-c3ccc(C#N)cc3Cl)c2C(F)(F)F)c1 [Compound 389, 1-(2-chloro-4-cyanophenyl)-N-((2,5-dimethylphenyl)sulfonyl)-5-(trifluoromethyl)-1H-1,2,3-triazole-4-carboxamide] | 4
COc1ccc(Cl)c(S(=O)(=O)NC(=O)c2nnn(-c3ccc(OC(F)F)cc3Cl)c2C)c1 [Compound 664] | 4
Cc1c(C(=O)NS(=O)(=O)c2ccccc2F)nnn1-c1ccc(Cl)cc1F [Compound 445] | 4
O=C(NS(=O)(=O)c1cc(C(F)(F)F)ccc1Cl)c1nnn(-c2ccc(OC(F)(F)F)cc2Cl)c1C1CC1 [Compound 227, 1-(2-chloro-4-(trifluoromethoxy)phenyl)-N-((2-chloro-5-(trifluoromethyl)phenyl)sulfonyl)-5-cyclopropyl-1H-1,2,3-triazole-4-carboxamide] | 4
Cc1ccccc1S(=O)(=O)NC(=O)c1nnn(-c2ccc(F)cc2F)c1C(F)(F)F [Compound 776] | 4
O=C(NS(=O)(=O)c1cc(Cl)ccc1Cl)c1cn(-c2cc(Cl)cc(Cl)c2)nn1 [Compound 2, 1-(3,5-dichlorophenyl)-N-((2,5-dichlorophenyl)sulfonyl)-1H-1,2,3-triazole-4-carboxamide] | 4
Cc1c(C(=O)NS(=O)(=O)c2c(F)cc(F)cc2F)nnn1-c1ccc(Cl)cc1Cl [Compound 281, 1-(2,4-dichlorophenyl)-5-methyl-N-((2,4,6-trifluorophenyl)sulfonyl)-1H-1,2,3-triazole-4-carboxamide] | 4
Cc1c(C(=O)NS(=O)(=O)c2ccccc2C(F)(F)F)nnn1-c1ccc(Cl)cc1F [Compound 443] | 4
Cc1cc(S(=O)(=O)NC(=O)c2nnn(-c3ccc(Cl)cc3Cl)c2C)c(C)cc1Cl [Compound 280, N-((4-chloro-2,5-dimethylphenyl)sulfonyl)-1-(2,4-dichlorophenyl)-5-methyl-1H-1,2,3-triazole-4-carboxamide] | 4
Cc1c(C(=O)NS(=O)(=O)c2ccccc2Cl)nnn1-c1ccc(OC(F)F)cc1Cl [Compound 671] | 4
Cc1c(C(=O)NS(=O)(=O)c2cc(Cl)ccc2F)nnn1-c1ccc(F)cc1F [Compound 691] | 4
Cc1ccc(C)c(S(=O)(=O)NC(=O)c2nnn(-c3ccc(OC(F)F)cc3Cl)c2C)c1 [Compound 667] | 4
Cc1c(C(=O)NS(=O)(=O)c2cc(C(F)(F)F)ccc2C(F)(F)F)nnn1-c1ccc(Cl)cc1F [Compound 441] | 4
Cc1ccc(C)c(S(=O)(=O)NC(=O)c2nnn(-c3ccc(OC(F)(F)F)cc3Cl)c2C)c1 [Compound 217] | 4

Structure (SMILES) | gall rating scale
Cc1c(C(=O)NS(=O)(=O)c2ccccc2C(F)(F)F)nnn1-c1ccc(OC(F)(F)F)cc1Cl [Compound 132] | 4
Cc1c(C(=O)NS(=O)(=O)c2ccccc2C(F)(F)F)nnn1-c1ccc(F)cc1F [Compound 687] | 4
N#Cc1ccc(-n2nnc(C(=O)NS(=O)(=O)c3ccccc3Cl)c2C(F)(F)F)c(F)c1 [Compound 563, N-((2-chlorophenyl)sulfonyl)-1-(4-cyano-2-fluorophenyl)-5-(trifluoromethyl)-1H-1,2,3-triazole-4-carboxamide] | 4
Cc1ccc(F)cc1S(=O)(=O)NC(=O)c1nnn(-c2ccc(OC(F)(F)F)cc2Cl)c1C(F)(F)F [Compound 597] | 4
Cc1ccc(F)cc1S(=O)(=O)NC(=O)c1nnn(-c2ccc(C#N)cc2Cl)c1C [Compound 516, 1-(2-chloro-4-cyanophenyl)-N-((5-fluoro-2-methylphenyl)sulfonyl)-5-methyl-1H-1,2,3-triazole-4-carboxamide] | 4
Cc1c(C(=O)NS(=O)(=O)c2cc(C(F)(F)F)ccc2Cl)nnn1-c1cc(Cl)cc(Cl)c1 [Compound 253] | 4
Cc1cc(S(=O)(=O)NC(=O)c2nnn(-c3ccc(C#N)cc3Cl)c2C)c(C)cc1Cl [Compound 460] | 4
Cc1c(C(=O)NS(=O)(=O)c2cc(C(F)(F)F)ccc2Cl)nnn1-c1ccc(Cl)cc1F [Compound 446] | 4
O=C(NS(=O)(=O)c1cc(Cl)ccc1Cl)c1nnn(-c2ccc(OC(F)(F)F)cc2Cl)c1C1CC1 [Compound 229, 1-(2-chloro-4-(trifluoromethoxy)phenyl)-5-cyclopropyl-N-((2,5-dichlorophenyl)sulfonyl)-1H-1,2,3-triazole-4-carboxamide] | 4
Cc1c(C(=O)NS(=O)(=O)c2ccccc2C(F)(F)F)nnn1-c1cc(Cl)cc(Cl)c1 [Compound 254] | 4
Cc1c(C(=O)NS(=O)(=O)c2cc(Cl)c(F)cc2F)nnn1-c1ccc(F)cc1Cl [Compound 250] | 4
Cc1c(C(=O)NS(=O)(=O)c2ccccc2F)nnn1-c1ccc(Cl)cc1Cl [Compound 278, 1-(2,4-dichlorophenyl)-N-((2-fluorophenyl)sulfonyl)-5-methyl-1H-1,2,3-triazole-4-carboxamide] | 4
CCc1c(C(=O)NS(=O)(=O)c2ccccc2Cl)nnn1-c1ccc(OC(F)(F)F)cc1Cl [Compound 338, 1-(2-chloro-4-(trifluoromethoxy)phenyl)-N-((2-chlorophenyl)sulfonyl)-5-ethyl-1H-1,2,3-triazole-4-carboxamide] | 4
O=C(NS(=O)(=O)c1ccccc1C(F)(F)F)c1nnn(-c2ccc(OC(F)(F)F)cc2Cl)c1C1CC1 [Compound 228] | 4
Cc1c(C(=O)NS(=O)(=O)c2cc(Cl)ccc2Cl)nnn1-c1ccc(OC(F)F)cc1Cl [Compound 666] | 4
COc1ccc(Cl)c(S(=O)(=O)NC(=O)c2nnn(-c3ccc(Cl)cc3C(F)(F)F)c2C(F)(F)F)c1 [Compound 57] | 4
COc1ccc(Cl)c(S(=O)(=O)NC(=O)c2nnn(-c3cc(C(F)(F)F)cc(C(F)(F)F)c3)c2C)c1 [Compound 108] | 4
COc1ccc(Cl)cc1S(=O)(=O)NC(=O)c1nnn(-c2ccc(OC(F)(F)F)cc2Cl)c1C [Compound 586] | 4
O=C(NS(=O)(=O)c1ccc(F)cc1F)c1nnn(-c2ccc(Cl)cc2Cl)c1C(F)(F)F [Compound 218] | 4
O=C(NS(=O)(=O)c1ccccc1C(F)(F)F)c1nnn(-c2ccc(Cl)cc2F)c1C(F)(F)F [Compound 640] | 4
COc1ccc(C)cc1S(=O)(=O)NC(=O)c1nnn(-c2ccc(Cl)cc2Cl)c1C(F)(F)F [Compound 599] | 4
Cc1c(C(=O)NS(=O)(=O)c2ccccc2F)nnn1-c1ccc(OC(F)F)cc1Cl [Compound 668] | 4
COc1ccc(Cl)c(S(=O)(=O)NC(=O)c2nnn(-c3ccc(OC(F)(F)F)cc3Cl)c2C)c1 [Compound 133] | 4
Cc1c(C(=O)NS(=O)(=O)c2cc(C(F)(F)F)ccc2Br)nnn1-c1ccc(C#N)cc1Cl [Compound 458] | 4
Cc1c(C(=O)NS(=O)(=O)c2ccccc2F)nnn1-c1ccc(F)cc1Cl [Compound 246] | 4
